≈ marks a conversion by molar mass, not a printed value.
Experiments:
Type in all cases: functional
Pseudomonas aeruginosa [1] = test: Antibacterial activity against Pseudomonas aeruginosa measured by Muller-Hinton broth based microdilution assay
Staphylococcus aureus [2] = test: Antibacterial activity against Staphylococcus aureus ATCC 29213 measured by Muller-Hinton broth based microdilution assay
Klebsiella pneumoniae = test: Antibacterial activity against Klebsiella pneumoniae measured by Muller-Hinton broth based microdilution assay
Enterococcus faecalis = test: Antibacterial activity against Enterococcus faecalis measured by Muller-Hinton broth based microdilution assay
Acinetobacter baumannii = test: Antibacterial activity against Acinetobacter baumannii measured by Muller-Hinton broth based microdilution assay
Escherichia coli [3] = test: Antibacterial activity against Escherichia coli ATCC 25922 measured by Muller-Hinton broth based microdilution assay
Pseudomonas aeruginosa [4] = test: Antibacterial activity against Pseudomonas aeruginosa ATCC 27853 measured by Muller-Hinton broth based microdilution assay
Escherichia coli [5] = test: Antibacterial activity against Escherichia coli measured by Muller-Hinton broth based microdilution assay
Staphylococcus aureus [6] = test: Antibacterial activity against Staphylococcus aureus measured by Muller-Hinton broth based microdilution assay
Staphylococcus aureus [7] = test: Antibacterial activity against Staphylococcus aureus ATCC 25923 measured by Muller-Hinton broth based microdilution assay
Staphylococcus aureus [8] = test: Antibacterial activity against methicillin-resistant Staphylococcus aureus N315 measured by Muller-Hinton broth based microdilution assay

| Compound | MIC (Pseudomonas aeruginosa [1]) [µg/mL] | MIC (Staphylococcus aureus [2]) [µg/mL] | MIC (Klebsiella pneumoniae) [µg/mL] | MIC (Enterococcus faecalis) [µg/mL] | MIC (Acinetobacter baumannii) [µg/mL] | MIC (Escherichia coli [3]) [µg/mL] | MIC (Pseudomonas aeruginosa [4]) [µg/mL] | MIC (Escherichia coli [5]) [µg/mL] | MIC (Staphylococcus aureus [6]) [µg/mL] | MIC (Staphylococcus aureus [7]) [µg/mL] | MIC (Staphylococcus aureus [8]) [µg/mL] |
| --- | --- | --- | --- | --- | --- | --- | --- | --- | --- | --- | --- |
| O=C1c2cccc3c(N/N=C/c4ccccc4F)ccc(c23)C(=O)N1C(CO)CO | 32 (≈ 78.5 µM) | 16 (≈ 39.3 µM) | 32 (≈ 78.5 µM) | 2 (≈ 4.91 µM) | 64 (≈ 157 µM) | 32 (≈ 78.5 µM) | 8 (≈ 19.6 µM) | 32 (≈ 78.5 µM) | 8 (≈ 19.6 µM) | 64 (≈ 157 µM) | 32 (≈ 78.5 µM) |
| O=C1c2cccc3c(N/N=C/c4ccc(O)c(Br)c4)ccc(c23)C(=O)N1C(CO)CO | 64 (≈ 132 µM) | 64 (≈ 132 µM) | 16 (≈ 33 µM) | 4 (≈ 8.26 µM) | 64 (≈ 132 µM) | 32 (≈ 66.1 µM) | 16 (≈ 33 µM) | 64 (≈ 132 µM) | 16 (≈ 33 µM) | 64 (≈ 132 µM) | 8 (≈ 16.5 µM) |
| COc1cc(/C=N/Nc2ccc3c4c(cccc24)C(=O)N(C(CO)CO)C3=O)ccc1O | 64 (≈ 147 µM) | 16 (≈ 36.7 µM) | 4 (≈ 9.19 µM) | 8 (≈ 18.4 µM) | 64 (≈ 147 µM) | 16 (≈ 36.7 µM) | 8 (≈ 18.4 µM) | 64 (≈ 147 µM) | 16 (≈ 36.7 µM) | 64 (≈ 147 µM) | 64 (≈ 147 µM) |
| O=C1c2cccc3c(N/N=C/c4ccccc4O)ccc(c23)C(=O)N1C(CO)CO | 64 (≈ 158 µM) | 16 (≈ 39.5 µM) | 4 (≈ 9.87 µM) | 16 (≈ 39.5 µM) | 64 (≈ 158 µM) | 32 (≈ 78.9 µM) | 64 (≈ 158 µM) | 32 (≈ 78.9 µM) | 16 (≈ 39.5 µM) | 32 (≈ 78.9 µM) | 2 (≈ 4.93 µM) |
| N#Cc1ccc(/C=N/Nc2ccc3c4c(cccc24)C(=O)N(C(CO)CO)C3=O)cc1 | 32 (≈ 77.2 µM) | 2 (≈ 4.83 µM) | 2 (≈ 4.83 µM) | 8 (≈ 19.3 µM) | 32 (≈ 77.2 µM) | 16 (≈ 38.6 µM) | 4 (≈ 9.65 µM) | 32 (≈ 77.2 µM) | 4 (≈ 9.65 µM) | 8 (≈ 19.3 µM) | 32 (≈ 77.2 µM) |
| O=C1c2cccc3c(N/N=C/c4ccc(O)c(Cl)c4)ccc(c23)C(=O)N1C(CO)CO | 8 (≈ 18.2 µM) | 64 (≈ 146 µM) | 64 (≈ 146 µM) | 64 (≈ 146 µM) | 64 (≈ 146 µM) | 64 (≈ 146 µM) | 32 (≈ 72.8 µM) | 16 (≈ 36.4 µM) | 64 (≈ 146 µM) | 32 (≈ 72.8 µM) | 64 (≈ 146 µM) |
| O=C1c2cccc(O)c2C(=O)c2c(O)cc(/C=N/Nc3ccc4c5c(cccc35)C(=O)N(C(CO)CO)C4=O)cc21 | 16 (≈ 29 µM) | 128 (≈ 232 µM) | 32 (≈ 58 µM) | 64 (≈ 116 µM) | 64 (≈ 116 µM) | 32 (≈ 58 µM) | 64 (≈ 116 µM) | 8 (≈ 14.5 µM) | 32 (≈ 58 µM) | 64 (≈ 116 µM) | 64 (≈ 116 µM) |
| O=C1c2cccc3c(N/N=C/c4ccc(F)cc4F)ccc(c23)C(=O)N1C(CO)CO | 256 (≈ 602 µM) | 16 (≈ 37.6 µM) | 128 (≈ 301 µM) | 128 (≈ 301 µM) | 256 (≈ 602 µM) | 256 (≈ 602 µM) | 256 (≈ 602 µM) | 256 (≈ 602 µM) | 256 (≈ 602 µM) | 32 (≈ 75.2 µM) | 128 (≈ 301 µM) |
| O=C1c2cccc3c(N/N=C/c4ccc(Cl)cc4Cl)ccc(c23)C(=O)N1C(CO)CO | 128 (≈ 279 µM) | 8 (≈ 17.5 µM) | 128 (≈ 279 µM) | 64 (≈ 140 µM) | 128 (≈ 279 µM) | 256 (≈ 559 µM) | 128 (≈ 279 µM) | 256 (≈ 559 µM) | 32 (≈ 69.8 µM) | 8 (≈ 17.5 µM) | 32 (≈ 69.8 µM) |
| O=C1c2cccc3c(N/N=C/c4cc(=O)oc5cc(O)ccc45)ccc(c23)C(=O)N1C(CO)CO | 64 (≈ 135 µM) | 8 (≈ 16.9 µM) | 4 (≈ 8.45 µM) | 128 (≈ 270 µM) | 64 (≈ 135 µM) | 32 (≈ 67.6 µM) | 4 (≈ 8.45 µM) | 64 (≈ 135 µM) | 4 (≈ 8.45 µM) | 8 (≈ 16.9 µM) | 32 (≈ 67.6 µM) |
| O=C1c2cccc3c(N/N=C/c4ccncc4)ccc(c23)C(=O)N1C(CO)CO | 2 (≈ 5.12 µM) | 128 (≈ 328 µM) | 64 (≈ 164 µM) | 64 (≈ 164 µM) | 64 (≈ 164 µM) | 64 (≈ 164 µM) | 1 (≈ 2.56 µM) | 32 (≈ 82 µM) | 4 (≈ 10.2 µM) | 64 (≈ 164 µM) | 64 (≈ 164 µM) |
| CCCCCCCCCCCCn1cc(/C=N/Nc2ccc3c4c(cccc24)C(=O)N(C(CO)CO)C3=O)c2ccccc21 | 128 (≈ 214 µM) | 64 (≈ 107 µM) | 64 (≈ 107 µM) | 64 (≈ 107 µM) | 64 (≈ 107 µM) | 64 (≈ 107 µM) | 32 (≈ 53.6 µM) | 32 (≈ 53.6 µM) | 8 (≈ 13.4 µM) | 32 (≈ 53.6 µM) | 64 (≈ 107 µM) |
| O=C1c2cccc3c(N/N=C/c4ccc(C(F)(F)F)cc4)ccc(c23)C(=O)N1C(CO)CO | 16 (≈ 35 µM) | 2 (≈ 4.37 µM) | 4 (≈ 8.74 µM) | 4 (≈ 8.74 µM) | 64 (≈ 140 µM) | 32 (≈ 70 µM) | 8 (≈ 17.5 µM) | 32 (≈ 70 µM) | 8 (≈ 17.5 µM) | 32 (≈ 70 µM) | 64 (≈ 140 µM) |
| O=C1c2cccc3c(N/N=C/c4ccc(O)c([N+](=O)[O-])c4)ccc(c23)C(=O)N1C(CO)CO | 32 (≈ 71 µM) | 8 (≈ 17.8 µM) | 4 (≈ 8.88 µM) | 16 (≈ 35.5 µM) | 32 (≈ 71 µM) | 32 (≈ 71 µM) | 8 (≈ 17.8 µM) | 32 (≈ 71 µM) | 4 (≈ 8.88 µM) | 4 (≈ 8.88 µM) | 64 (≈ 142 µM) |
| CCCCCCCCn1cc(/C=N/Nc2ccc3c4c(cccc24)C(=O)N(C(CO)CO)C3=O)c2ccccc21 | 128 (≈ 237 µM) | 64 (≈ 118 µM) | 16 (≈ 29.6 µM) | 64 (≈ 118 µM) | 64 (≈ 118 µM) | 128 (≈ 237 µM) | 64 (≈ 118 µM) | 32 (≈ 59.2 µM) | 32 (≈ 59.2 µM) | 16 (≈ 29.6 µM) | 64 (≈ 118 µM) |
| CCn1cc(/C=N/Nc2ccc3c4c(cccc24)C(=O)N(C(CO)CO)C3=O)c2ccccc21 | 16 (≈ 35 µM) | 32 (≈ 70.1 µM) | 8 (≈ 17.5 µM) | 32 (≈ 70.1 µM) | 64 (≈ 140 µM) | 32 (≈ 70.1 µM) | 32 (≈ 70.1 µM) | 16 (≈ 35 µM) | 8 (≈ 17.5 µM) | 16 (≈ 35 µM) | 64 (≈ 140 µM) |
| O=C1c2cccc3c(N/N=C/c4ccc(O)c(O)c4O)ccc(c23)C(=O)N1C(CO)CO | 64 (≈ 146 µM) | 64 (≈ 146 µM) | 2 (≈ 4.57 µM) | 8 (≈ 18.3 µM) | 16 (≈ 36.6 µM) | 16 (≈ 36.6 µM) | 4 (≈ 9.14 µM) | 64 (≈ 146 µM) | 4 (≈ 9.14 µM) | 32 (≈ 73.2 µM) | 16 (≈ 36.6 µM) |
